Patent US20260137696A1, “Compositions Comprising an Inhibitor of Galectin-3” (University of Liverpool, priority 2023, published 2026)

Assays:
[1] = test system: galectin-3 knockout (Gal3KO) MDA-MB-231 cells; test: Triple-negative breast cancer cell adhesion to basement matrix, galectin-3 knockout; format: cell-based, human; conditions: galectin-3 knockout by CRISPR/Cas9 (FIG. 15C, 15D)
Procedure: (§1) Nanty-six well plates were coated with 50 μl Matrigel (1:30 diluted in PBS) at 37° C. for 1 hour. Cancer cells, pre-labelled with fluorescent die DiI at 37° C. for 20 minutes, were washed twice with PBS and resuspended into 3×10^4 cells/ml in serum-free medium. The matrix-coated 96-well plates were washed twice with PBS before introduction of […] cell suspension with different concentrations of the inhibitors or PBS/DMSO (control) for 1 hour at 37° C. The plates were washed twice with PBS before three randomly selected Field of Views (FOVs) were recorded by fluorescence microscope and number of adhesion cells were quantified by Image J.
MDAMB-231 or PANC-1 cells were seeded into 6-well plate (2×10^5 cells) and cultured at 37° C. for 24 hour. Galectin-3 CRISPR Cas9 Knockout plasmid (2 μg) and galectin-3 HDR plasmid (2 μg) was mixed with Plasmid Transfection Medium (21 μl) for 5 minutes before addition to a mixture of lipofectamine STEM Transfection Reagent (STEM00001) (1 μl) and Plasmid Transfection Medium (25 μl) for 10 minutes at room temperature. The cells in the 6-well plates were washed and introduced with the Plasmid DNA/Lipofectamine STEM Transfection Reagent complex at 37° C. for 24 hours. […] Successful co-transfection of the CRISPR/Cas9 KO Plasmid and HDR Plasmid was confirmed by expression of red fluorescence protein of the cells. […]

SW620^Gal3− cells = test: Tumour cell adhesion to laminin; format: cell-based, human; conditions: 10 μM; Galectin-3-suppressed SW620^Gal3− cells
Procedure: (§2) White wall 96-well plates were coated with laminin (20 μg/ml) in coating buffer (15 mM Na2CO3 17 mM NaHCO3 pH 9.6) overnight at room temperature. ZsGreen- and luciferase-transfected SW620Gal3+, SW620Gal-3, or ACA19+ cells (5×10^5 cells/ml) were pre-incubated without or with 10 μM of the compound of Formula I or the compound of Formula II for 10 minutes before added into laminin-coated plates for 30 min at 37° C. The plates were washed twice with PBS before lysed by PLB for 5 min on a shaker. Luciferase Assay Reagent was then added before luminescence was measured using Tecan Infinite F200 microplate reader.
(§3) Nanty-six well plates were coated with matrix protein laminin (20 μg/ml) in coating buffer overnight. ZsGreen- and luciferase-labelled SW620Gal3− and SW620Gal3+ cells (5×10^5 cells/ml) were mixed without or with 10 μM inhibitors for 15 minutes before introduced to the laminin-coated plates for 30 minutes at 37° C. The plates were washed twice with PBS and the bound cells were lysed by Passive lysis buffer. After addition of Luciferase Assay Reagent (LAR) for 10 minutes, the luminescence intensity in the wells was measured by a microplate reader.

SW620^Gal3+ cells [2] = test: Tumour cell adhesion to laminin; format: cell-based, human; conditions: 10 μM; Galectin-3-expressing SW620^Gal3+ cells
Procedure: as §2, §3

SW620^Gal3+ cells [3] = test: Cancer cell adhesion to HUVECs; format: cell-based, human; conditions: 10 μM; Galectin-3-expressing SW620^Gal3+ cells
Procedure: (§4) Adhesion of human colon cancer SW620 cells to human umbilical vein endothelial cells (HUVECs) was assessed in the absence or presence of the compounds of Formula I and Formula II (10 μM). […] (N=2, n=2);
(§5) Adhesion of human colon cancer SW620 cells to human umbilical vein endothelial cells (HUVECs) was assessed in the absence or presence of the compounds of Formula I and Formula II (10 μM).
(§6) HUVECs (1.5×10^5 cells/ml) were seeded into 96-well plates in complete EBM-2 medium and incubated at 37° C. 5% CO2 for 48-72 hours until a monolayer was formed. Monolayer integrity was confirmed by measuring trans-endothelial electrical resistance (TEER) using a Volt Ohm Meter and only monolayers with TEER reading over 800 Ω/cm^2 were used for the assay. ZsGreen- and luciferase-transfected SW620Gal3+, SW620Gal3− or ACA19+ cells (5×10^5 cells/ml) was then added to the HUVECs without or with 10 μM of the compound of Formula I or the compound of Formula II for 30-35 min at 37° C. The cells were washed twice with PBS before lysed with PLB. The cell lysates were transferred into new wells of white-walled 96-well plates and Luciferase Assay Reagent was added. The wells were mixed well and luminescence was measured using Infinite F200 Microplate reader. The experiment was performed three times, each time in triplicates.

Galectin-3 = biological target: T1, Galectin-3 (Homo sapiens, UniProt P17931); test: Binding affinity to Galectin-3 by Tryptophan Fluorescence Spectroscopy (TFS); conditions: Galectin-3 10 μM, titration 0 to 224 μM
T1 construct: made in house; host or cells: E. coli
Procedure: (§7) The binding affinity of the compounds of Formula I and Formula II to Galectin-3 is assessed by Tryptophan Fluorescence Spectroscopy (TFS). The compounds of Formula I and Formula II bind to Galectin-3 with binding affinity (KD) at low μM;
as §7, with “FIG. 2A and FIG. 2B show analysis of the binding affinity of the compounds of Formula I and Formula II to Galectin-3. The binding” for “The binding”, “at low μM.” for “at low μM;”
The binding affinity of the inhibitors to Galectin-3 was determined by Intrinsic Tryptophan Fluorescence Spectroscopy (TFS) exactly as we described recently (Sindrewicz, P., et al., Intrinsic tryptophan fluorescence spectroscopy reliably determines galectin-ligand interactions. Sci Rep, 2019. 9(1): p. 11851, herein incorporated by reference). The Galectin-3 concentration used was 10 μM and the inhibitor titration concentrations were from 0 to 224 μM. DMSO/control buffer (PBS with 2 mM EDTA) titrations were performed and used for background subtraction.
The binding affinities of the compounds of Formula I and compounds of Formula II to Galectin-3 was determined by Tryptophan Fluorescence spectroscopy (TFS) [Sindrewicz, P., et al., Intrinsic tryptophan fluorescence spectroscopy reliably determines galectin-ligand interactions. Scientific Reports, 2019. 9(1): p. 11851, herein incorporated by reference] The Galectin-3 concentration used was 10 μM and the compounds of Formula I and compounds of Formula II titration concentrations were from 0 to 224 μM. DMSO/control buffer (PBS with 2 mM EDTA) titrations were performed and used for background subtraction.

H1975 cell = test: Lung cancer cell adhesion to basement matrix; format: cell-based, human; conditions: for IC50: Homo sapiens, NCI-H1975; for H1975 cell adhesion to matrix: different concentrations
Procedure: as §1

ACA19+ cells = test: Melanoma cell adhesion to HUVECs; format: cell-based; conditions: human melanoma ACA19+ cells, various concentrations
Procedure: as §4, §5, §6

T1 sequence (P17931 whole entry): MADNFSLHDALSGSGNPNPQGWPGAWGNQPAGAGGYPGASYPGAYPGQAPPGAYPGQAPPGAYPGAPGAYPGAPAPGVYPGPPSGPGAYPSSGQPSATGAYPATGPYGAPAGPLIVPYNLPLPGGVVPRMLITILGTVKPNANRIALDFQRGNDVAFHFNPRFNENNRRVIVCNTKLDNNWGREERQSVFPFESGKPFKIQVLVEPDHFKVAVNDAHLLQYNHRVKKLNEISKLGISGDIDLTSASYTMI

Structure (SMILES)	adhesion of Gal3KO MDA-MB-231 cells [1]	adhesion to matrix protein component laminin (SW620^Gal3− cells)	adhesion to matrix protein component laminin (SW620^Gal3+ cells [2])	adhesion to HUVEC (SW620^Gal3+ cells [3])	Kd (Galectin-3) [µM]	binding affinity (Kd) to Galectin-3 (Galectin-3)	IC50 (H1975 cell) [µM]	H1975 cell adhesion to matrix (H1975 cell)	ACA19+ cell adhesion to HUVEC (ACA19+ cells)
C[C@H]1COc2c(N3CCN(C)CC3)c(F)cc3c(=O)c(C(=O)NNc4cccc(N)c4)cn1c23 [Formula II]	lost their inhibitory effect	much reduced effect	significantly inhibits	significantly inhibits	30	low μM	~10	dose-dependently inhibits	dose-dependent inhibition
C[C@H]1COc2c(N3CCN(C)CC3)c(F)cc3c(=O)c(C(=O)NNc4ccc(N)cc4)cn1c23 [Formula I]	lost their inhibitory effect	much reduced effect	significantly inhibits	significantly inhibits	18	low μM	> 20	dose-dependently inhibits	dose-dependent inhibition
